Eleven molecules from article PMC7948503, “Optimization of a peptide ligand for the adhesion GPCR ADGRG2 provides a potent tool to explore receptor biology” (The Journal of Biological Chemistry, 2020) can be followed below.

One assay has as its target T1, ADGRG2-FL (Mus musculus, UniProt Q8CJ12).
T1 construct: Wildtype ADGRG2 full-length (ADGRG2-FL) was cloned from mouse total cDNA libraries; expressed in transfected cells; host or cells: HEK293
The experiment in a line: GloSensor cAMP assay, HEK293 transfected with ADGRG2-FL. It is filed as cell-based. The note with it: for EC50: HEK293 transfected with ADGRG2-FL, increasing peptide concentration, cAMP Glosensor, repeated 6 times; for p15 activity after alanine substitution (cAMP level): alanine scanning, 100 μM peptide, HEK293 ADGRG2-FL, Glosensor, compared with p15-WT, repeated six times. The text has this: (§1) Wildtype ADGRG2 full-length (ADGRG2-FL) was cloned from mouse total cDNA libraries using the following primers: forward, […]; reverse, […], and then ADGRG2-FL, ADGRG2 C-terminal truncation mutant (ADGRG2-β), and ADGRG2-ΔGPS-β (the entire ECD of ADGRG2 was deleted) were subcloned into the pcDNA3.1 expression vector. The ADGRG2-ΔGPS-β mutants (T610A, Y611A, C614A, S661A, W662A, I663A, L665A, Y666A，N667A, F671A, L679A, L683A, I730A, V731A, F741A, F747A, W757A, I758A, N759A, S760A, V762A, F764A, Y765A, V768A, V769A, F772A, V774A, W824A, F826A, F828A, F829A, V834A, V836A, F838A, M839A, I844A, F845A) were generated using a QuikChange Mutagenesis Kit (Stratagene). All mutations were verified by DNA sequencing.
(§2) Human embryonic kidney 293 (HEK293) cells were maintained in Dulbecco’s modified Eagle’s medium supplemented with 10% fetal bovine serum, penicillin (100 IU/ml), and streptomycin (100 μg/ml) as described ([6], [38]). For receptor or other protein expression, plasmids carrying the desired genes were transfected into cells using Lipofectamine 2000 (Invitrogen).
(§3) The Glosensor cAMP assay was performed as described ([6], [39], [40]). HEK293 cells were transfected with the GloSensor plasmid and the desired expression plasmids in 24-well dishes. Twenty-four hours after transfection, the cells were plated on 96-well plates at a cell density of 20,000 cells/well. The cells were maintained in Dulbecco’s modified Eagle’s medium for another 24 h, washed with PBS, and then incubated with 100 μl of solution containing 10% fetal bovine serum, 2% (v/v) GloSensor cAMP reagent, and 88% CO2-independent medium in each well for 2 h. The cAMP signal was examined using a luminescence counter (Mithras LB 940).
A general note: Changes in cAMP serve as a functional read-out for many G protein-coupled receptors.

Another assay has as its target T2, ADGRG2-ΔGPS-β (Mus musculus, UniProt Q8CJ12).
T2 construct: the entire ECD (including the entire GPS motif) was removed (ADGRG2-ΔGPS-β); expressed in transfected cells; host or cells: HEK293
The experiment in a line: GloSensor cAMP assay, HEK293 transfected with ADGRG2-ΔGPS-β. It counts as cell-based. The following applies: cAMP Glosensor; for EC50: HEK293 transfected with ADGRG2-ΔGPS-β, increasing peptide concentration, repeated six times; for EC50 compared with wildtype p15 or other mutants: concentration-response curves, ADGRG2-ΔGPS-β.
Description: as §1, §2, §3

Another assay relates to ADGRG2. The experiment in a line: CalfluxVTN Ca2+ assay. It counts as cell-based, mouse. The following applies: Gq/11 selective inhibitor. Here is the method: For the Ca^2+ assays, HEK293 cells in 24-well dishes were cotransfected with plasmids encoding ADGRG2 or its mutants, CalfluxVTN constructs were used at a 6:1 ratio. Empty vector pcDNA3.1(+) was used to normalize the total amount of transfected plasmid DNA. The transfection and CalfluxVTN Ca^2+ assays were performed as previously reported ([28], [29], [41]) with minor modifications. In brief, 24 h post transfection, cells were harvested and distributed in 96-well flat-bottomed white microplates. After another 24 h, the cells were processed accordingly and then were added with the Nluc substrate furimazine (5 μM). The BRET signal was calculated by measuring the ratio of the light emitted by the Venus reporter (535 nm) relative to light emitted by the Nluc reporter (475 nm). The average baseline value (basal BRET ratio) recorded prior to agonist stimulation was subtracted from the experimental BRET signal values to obtain the ΔBRET ratio.

The target of assay [1] is Rluc-ADGRG2-ΔGPS-β wildtype (mouse).

Starred links: 1 amine or outer side, 2 acyl side, 3 side chain; linkers in the order of their positions; H or OH if unused. Positions of bridges follow the written chain, without caps; N, C: chain ends. Non-standard residues stand in square brackets, D forms with d. Residues, ends and D or L forms follow the SMILES beside them. No end group written: not given here. X1 = CC(=O)NC(C(=O)OC(C(C)C)C(N[*:1])C(=O)[*:2])C(O)C(C)C; Phe(4-Me) = Cc1ccc(C[C@H](N)C(=O)O)cc1; 1Nal = N[C@@H](Cc1cccc2ccccc12)C(=O)O; PhLac = O=C(O)[CH](O)Cc1ccccc1; NMeT = CN[CH](C(=O)O)[CH](C)O; NMeA = CN[CH](C)C(=O)O; NMeDha = C=C(NC)C(=O)O

One may read the EC50 as the concentration that produces a half-maximal response.

T1 sequence (Q8CJ12 38-995 isoform Q8CJ12-3 limits assumed): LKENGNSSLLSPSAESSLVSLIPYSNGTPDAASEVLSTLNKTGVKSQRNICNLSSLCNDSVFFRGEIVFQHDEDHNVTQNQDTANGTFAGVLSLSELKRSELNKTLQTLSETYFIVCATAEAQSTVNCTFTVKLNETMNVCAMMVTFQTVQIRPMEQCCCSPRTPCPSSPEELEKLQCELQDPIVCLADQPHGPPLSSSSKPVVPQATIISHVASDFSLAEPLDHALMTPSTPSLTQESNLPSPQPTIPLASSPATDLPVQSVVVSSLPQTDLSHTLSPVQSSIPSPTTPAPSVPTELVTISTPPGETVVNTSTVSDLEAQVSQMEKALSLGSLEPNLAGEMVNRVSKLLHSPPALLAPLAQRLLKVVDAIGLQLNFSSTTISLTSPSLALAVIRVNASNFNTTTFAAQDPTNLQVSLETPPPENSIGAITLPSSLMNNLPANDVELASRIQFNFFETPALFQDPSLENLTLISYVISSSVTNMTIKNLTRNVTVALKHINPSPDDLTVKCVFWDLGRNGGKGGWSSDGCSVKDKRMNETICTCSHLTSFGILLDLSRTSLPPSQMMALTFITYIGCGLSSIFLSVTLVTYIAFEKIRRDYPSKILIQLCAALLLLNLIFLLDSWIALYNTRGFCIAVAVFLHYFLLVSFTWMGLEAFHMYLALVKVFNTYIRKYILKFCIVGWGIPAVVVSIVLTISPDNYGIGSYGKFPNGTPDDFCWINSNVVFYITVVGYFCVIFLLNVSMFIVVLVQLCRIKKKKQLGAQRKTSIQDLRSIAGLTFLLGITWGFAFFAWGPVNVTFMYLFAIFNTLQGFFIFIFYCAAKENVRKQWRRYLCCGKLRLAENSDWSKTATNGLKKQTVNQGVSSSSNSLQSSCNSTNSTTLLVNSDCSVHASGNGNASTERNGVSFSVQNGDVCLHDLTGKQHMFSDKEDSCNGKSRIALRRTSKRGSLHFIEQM
T2 sequence (Q8CJ12 618-1009 limits assumed, stated change not applied): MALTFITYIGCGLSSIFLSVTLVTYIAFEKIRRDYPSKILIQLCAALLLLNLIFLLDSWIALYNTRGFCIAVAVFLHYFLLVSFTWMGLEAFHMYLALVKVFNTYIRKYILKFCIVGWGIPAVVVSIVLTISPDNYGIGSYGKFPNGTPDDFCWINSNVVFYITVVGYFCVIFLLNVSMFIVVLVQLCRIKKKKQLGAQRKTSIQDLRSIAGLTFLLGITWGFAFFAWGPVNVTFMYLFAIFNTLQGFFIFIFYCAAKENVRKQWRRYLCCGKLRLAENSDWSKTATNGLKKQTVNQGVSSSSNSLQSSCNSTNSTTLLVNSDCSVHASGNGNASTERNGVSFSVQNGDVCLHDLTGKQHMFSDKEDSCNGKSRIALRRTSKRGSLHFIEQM

Consider “TSFGILLDLSRTSLP [p15, reference compound]”, for which the EC50 on ADGRG2-FL came out at 175 µM; on ADGRG2-ΔGPS-β it was 243 µM.

“F3A: p15 alanine-scan mutant F3A (TSAGILLDLSRTSLP)”: the “p15 activity after alanine substitution (cAMP level)” value with ADGRG2-FL is “greatly impaired p15 activity”.

As for `CC[C@H](C)[C@H](NC(=O)CNC(=O)[C@H](Cc1cccc2ccccc12)NC(=O)[C@H](CO)NC(=O)[C@@H](N)[C@@H](C)O)C(=O)N[C@@H](CC(C)C)C(=O)N[C@@H](CC(C)C)C(=O)N[C@@H](CC(=O)O)C(=O)N[C@@H](CC(C)C)C(=O)N[C@@H](CO)C(=O)N[C@@H](CCCNC(=N)N)C(=O)N[C@H](C(=O)N[C@@H](CO)C(=O)N[C@@H](CC(C)C)C(=O)N1CCC[C@H]1C(=O)O)[C@@H](C)O` [F3(1-Nal)] (H-TS[1Nal]GILLDLSRTSLP-OH), on ADGRG2-ΔGPS-β, the “EC50 compared with wildtype p15 or other mutants” value is “lower EC50 value than wildtype p15”.

As to `CC[C@H](C)[C@H](NC(=O)CNC(=O)[C@H](Cc1ccc(C)cc1)NC(=O)[C@H](CO)NC(=O)[C@@H](N)[C@@H](C)O)C(=O)N[C@@H](CC(C)C)C(=O)N[C@@H](CC(C)C)C(=O)N[C@@H](CC(=O)O)C(=O)N[C@@H](CC(C)C)C(=O)N[C@@H](CO)C(=O)N[C@@H](CCCNC(=N)N)C(=O)N[C@H](C(=O)N[C@@H](CO)C(=O)N[C@@H](CC(C)C)C(=O)N1CCC[C@H]1C(=O)O)[C@@H](C)O` [F3Phe(4-Me)] (H-TS[Phe(4-Me)]GILLDLSRTSLP-OH), on ADGRG2-ΔGPS-β, the “EC50 compared with wildtype p15 or other mutants” value is recorded as “lower EC50 value than wildtype p15”.

Turning to `CC[C@H](C)[C@H](NC(=O)CNC(=O)[C@H](Cc1cccc2ccccc12)NC(=O)[C@H](CO)NC(=O)[C@@H](N)C(C)C)C(=O)N[C@@H](CC(C)C)C(=O)N[C@@H](CC(C)C)C(=O)N[C@@H](CC(=O)O)C(=O)N[C@@H](CC(C)C)C(=O)N[C@@H](CO)C(=O)N[C@@H](CCCNC(=N)N)C(=O)N[C@H](C(=O)N[C@@H](CO)C(=O)N[C@@H](CC(C)C)C(=O)N1CCC[C@H]1C(=O)O)[C@@H](C)O` [T1V/F3(1-Nal)] (H-VS[1Nal]GILLDLSRTSLP-OH), on ADGRG2-ΔGPS-β, it took 4.7 µM to reach a half-maximal effect (EC50) and the “EC50 compared with wildtype p15 or other mutants” value is “significant lower EC50 than other mutants”.

For the molecule `C=C1C(=O)NC(C)C(=O)N(C)C(C)C(=O)NC(C(OC(=O)C(NC(C)=O)C(O)C(C)C)C(C)C)C(=O)N(C)C(C(C)OC)C(=O)OC(C)C(NC(C)=O)C(=O)OC(Cc2ccccc2)C(=O)N1C` (centres unmarked) [YM-254890] (Ac-T[PhLac][NMeDha]A[NMeA][X1][NMeT](Me); ester 1-C; configuration not given here), the “inhibition of p15-elicited rise in intracellular calcium” value in the assay on ADGRG2 is recorded as “inhibited”.

“FITC-conjugated VPM-p15 (ADGRG2 Stachel peptide p15 T1V/F3Phe(4-Me))”: in assay [1], the EC50 of cAMP accumulation (GloSensor assay), HEK293 cells transfected with ADGRG2-ΔGPS-β, increasing concentrations of VPM-p15 (without FITC) came out at 1.41 µM and the fold change of the EC50 of cAMP accumulation (GloSensor assay) against the wildtype p15 peptide, ADGRG2-ΔGPS-β in HEK293 cells stood at 170 fold.

Molecule TSFGILLDLSRTSAP [L14A] showed an EC50 on ADGRG2-FL of 274 µM.

Regarding VSFGILLDLSRTSLP [T1V], the “EC50 compared with wildtype p15 or other mutants” value at ADGRG2-ΔGPS-β is reported as “lower EC50 value than wildtype p15”.

Take “R11A: p15 alanine-scan mutant R11A (TSFGILLDLSATSLP)”: the “p15 activity after alanine substitution (cAMP level)” value with ADGRG2-FL is “greatly impaired p15 activity”.

Take VSFGILLDLSRTSLP [ADGRG2 Stachel peptide p15 T1V]: the cAMP accumulation (GloSensor assay), HEK293 cells transfected with ADGRG2-ΔGPS-β, 100 μM peptide, against wildtype p15 in assay [1] is 3 fold.
